Assay results: patent US7238716B2, “Alkanoic acid derivatives process for their production and use thereof” (Takeda Pharmaceuticals Company Limited, priority 2000, dated 2007)

Row | melting point | SMILES
1 | 179 to 180 °C | Cc1oc(-c2ccccc2)nc1COc1cccc(COc2ccc(CC(=O)O)cc2)c1 [Example 68, 2-[4-[3-[(5-methyl-2-phenyl-4-oxazolyl)methoxy]benzyloxy]phenyl]acetic acid]
2 | 187 to 188 °C | Cc1oc(-c2ccccc2)nc1COc1ccc(COc2ccc3ccccc3c2CC(=O)O)cc1 [Example 39, 2-[2-[4-[(5-methyl-2-phenyl-4-oxazolyl)methoxy]benzyloxy]-1-naphthyl]acetic acid]
3 | 166 to 167 °C | Cc1oc(-c2ccccc2)nc1COc1ccc(COc2ccc(CC(=O)O)cc2)cc1 [Example 9, 2-[4-[4-[(5-methyl-2-phenyl-4-oxazolyl)methoxy]benzyloxy]phenyl]acetic acid]
4 | 88 to 89 °C | COC(=O)Cc1cccc(OCc2ccc(OC)c(OCc3nc(-c4ccccc4)oc3C)c2)c1 [Example 131, methyl 3-[4-methoxy-3-[(2-phenyl-5-methyl-4-oxazolyl)methoxy]benzyloxy]phenylacetate]
5 | 97 to 98 °C | Cc1oc(-c2ccccc2)nc1COc1cccc(COc2cccc(CC(=O)O)c2)n1 [Example 64, 2-[3-[[6-[(5-methyl-2-phenyl-4-oxazolyl)methoxy]-2-pyridyl]methoxy]phenyl]acetic acid]
6 | 90 to 91 °C | Cc1oc(-c2ccccc2)nc1COc1ccc(COC(=O)Cc2cccc(OCc3ccc(OCc4nc(-c5ccccc5)oc4C)cc3)c2)cc1 [Example 53, 4-[(5-methyl-2-phenyl-4-oxazolyl)methoxy]benzyl 2-[3-[4-[(5-methyl-2-phenyl-4-oxazolyl)methoxy]benzyloxy]phenyl]acetate]
7 | 116 to 118 °C | CC(Nc1nc(-c2ccccc2)cs1)c1ccc(COc2ccc(CC(=O)O)cc2)cc1 (stereo not shown) [Example 128, 4-[4-[methyl(4-phenyl-2-thiazolyl)aminomethyl]benzyloxy]phenylacetic acid]
8 | 162 to 163 °C | Cc1oc(-c2ccccc2)nc1COc1ccc(COc2ccc(Br)cc2CC(=O)O)cc1 [Example 20, 2-[5-bromo-2-[4-[(5-methyl-2-phenyl-4-oxazolyl)methoxy]benzyloxy]phenyl]acetic acid]
9 | 78 to 79 °C | COC(=O)Cc1ccccc1OCc1ccc(OCCc2nc(-c3ccccc3)oc2C)nc1 [Example 118, methyl 2-[2-[[6-[2-(5-methyl-2-phenyl-4-oxazolyl)ethoxy]-3-pyridyl]methoxy]phenyl]acetate]
10 | 207 to 208 °C | Cc1oc(-c2ccccc2)nc1COc1cncc(COc2ccccc2CC(=O)O)c1 [Example 43, 2-[2-[[5-[(5-methyl-2-phenyl-4-oxazolyl)methoxy]-3-pyridyl]methoxy]phenyl]acetic acid]
11 | 145 to 146 °C | Cc1oc(-c2ccccc2)nc1COc1ccccc1COc1ccccc1CC(=O)O [Example 56, 2-[2-[2-[(5-methyl-2-phenyl-4-oxazolyl)methoxy]benzyloxy]phenyl]acetic acid]
12 | 146 to 147 °C | CCOc1ccc(OCc2ccccc2OCc2nc(-c3ccccc3)oc2C)cc1CCC(=O)O [Example 35, 3-[2-ethoxy-5-[2-[(5-methyl-2-phenyl-4-oxazolyl)methoxy]benzyloxy]phenyl]propionic acid]
13 | 102 to 103 °C | Cc1oc(-c2ccccc2)nc1COc1ccc(COc2ccc(-c3ccccc3)cc2CC(=O)O)cc1 [Example 22, 2-[2-[4-[(5-methyl-2-phenyl-4-oxazolyl)methoxy]benzyloxy]-5-phenylphenyl]acetic acid]
14 | 154 to 155 °C | COc1ccc(COc2ccccc2CC(=O)O)cc1OCc1nc(-c2ccccc2)oc1C [Example 49, 2-[2-[4-methoxy-3-[(5-methyl-2-phenyl-4-oxazolyl)methoxy]benzyloxy]phenyl]acetic acid]
15 | 157 to 159 °C | Cc1oc(-c2ccccc2)nc1COc1ccc(COc2ncccc2CC(=O)[O-])cc1.[K+]
16 | 93 to 94 °C | COC(=O)Cc1ccc(OCc2ccc(OCc3nc(-c4ccccc4)oc3C)cc2)cc1 [Example 8, methyl 2-[4-[4-[(5-methyl-2-phenyl-4-oxazolyl)methoxy]benzyloxy]phenyl]acetate]
17 | 158 to 159 °C | Cc1oc(-c2ccccc2)nc1COc1cccc(COc2cncc(CC(=O)O)c2)c1 [Example 76, 2-[5-[3-[(5-methyl-2-phenyl-4-oxazolyl)methoxy]benzyloxy]-3-pyridyl]acetic acid]
18 | 150 to 151 °C | Cc1oc(-c2ccccc2)nc1COc1cccc(CSc2ccc(CC(=O)O)cc2Cl)c1 [Example 142, 2-[3-chloro-4-[3-[(5-methyl-2-phenyl-4-oxazolyl)methoxy]benzylthio]phenyl]acetic acid]
19 | 85 to 87 °C | CCOC(=O)C=Cc1cccnc1OCc1ccc(OCc2nc(-c3ccco3)oc2C)c(OC)c1 [Example 135, ethyl 3-[2-[4-[[2-(2-furyl)-5-methyl-4-oxazolyl]methoxy]-3-methoxybenzyloxy]-3-pyridyl]propenoate]
20 | 80 to 81 °C | COC(=O)Cc1cc(C)ccc1OCc1ccc(OCc2nc(-c3ccccc3)oc2C)cc1 [Example 14, methyl 2-[5-methyl-2-[4-[(5-methyl-2-phenyl-4-oxazolyl)methoxy]benzyloxy]phenyl]acetate]
21 | 82 to 83 °C | CCOc1ccc(OCc2ccc(OCc3nc(-c4ccccc4)oc3C)cc2)cc1CC(=O)OC [Example 4, methyl-2-[2-ethoxy-5-[4-[(5-methyl-2-phenyl-4-oxazolyl)methoxy]benzyloxy]phenyl]acetate]
22 | 77 to 78 °C | COC(=O)Cc1ccccc1OCc1cncc(OCc2nc(-c3ccccc3)oc2C)c1 [Example 42, methyl 2-[2-[[5-[(5-methyl-2-phenyl-4-oxazolyl)methoxy]-3-pyridyl]methoxy]phenyl]acetate]
23 | 108 to 109 °C | COC(=O)Cc1ccccc1OCc1cc(OCc2nc(-c3ccccc3)sc2C)no1 [Example 113, methyl 2-[2-[[3-[(5-methyl-2-phenyl-4-thiazolyl)methoxy]-5-isoxazolyl]methoxy]phenyl]acetate]
24 | 100 to 101 °C | COC(=O)Cc1cc(Br)ccc1OCc1ccc(OCc2nc(-c3ccccc3)oc2C)cc1 [Example 19, methyl 2-[5-bromo-2-[4-[(5-methyl-2-phenyl-4-oxazolyl)methoxy]benzyloxy]phenyl]acetate]
25 | 174 to 175 °C | Cc1oc(-c2ccccc2)nc1COc1ccc(COc2ncccc2C=CC(=O)O)cc1 [Example 134, 3-[2-[4-[(5-methyl-2-phenyl-4-oxazolyl)methoxy]benzyloxy]-3-pyridyl]propenoic acid]
26 | 136 to 137 °C | CCOc1ccc(OCc2cccc(OCc3nc(-c4ccccc4)oc3C)c2)cc1CCC(=O)O [Example 33, 3-[2-ethoxy-5-[3-[(5-methyl-2-phenyl-4-oxazolyl)methoxy]benzyloxy]phenyl]propionic acid]
27 | 207 to 209 °C | Cc1oc(-c2ccccc2)nc1COc1ccc(COc2ncccc2CC(=O)[O-])cc1.[Li+]

Row | SMILES | melting point
28 | COC(=O)Cc1ccccc1OCc1ccc(N(Cc2nc(-c3ccccc3)oc2C)C(=O)OC(C)(C)C)cc1 [Example 59, methyl 2-[2-[4-[(t-butoxycarbonyl)[(5-methyl-2-phenyl-4-oxazolyl)methyl]amino]benzyloxy]phenyl]acetate] | 85 to 86 °C
